Target: T1, Full-length, GST-tagged, human CaMKIIδ (Homo sapiens, UniProt Q13557)
T1 construct: Full-Length, Glutathione-S-Transferase(GST)-Tagged, Human CaMKIIδ was purchased from Carna Biosciences; purchased Carna Biosciences 02-111
Assay: CaMKIIδ binding assay (TR-FRET with BODIPY-labeled probe ligand)
Method in brief: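 Compounds were tested as 4-fold, eight-point series for 1 hr at room temperature, and IC50 was obtained by logistic fitting against a 3 μM parent-compound control. Signal came from displacement of a 300 nM BODIPY ligand from 0.5 nM GST-CaMKIIδ, detected via Tb-anti-GST in calmodulin/Ca2+ (pH 7.6).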

[1] = Table 2, CaMKIIδ binding assay, activity given as class A/B/C
[2] = CaMKIIδ binding assay, activity class per Table 2
[3] = CaMKIIδ binding assay, results of Table 2
[4] = Table 2, activity class for CaMKIIδ

T1 sequence (Q13557 1-478 isoform Q13557-12): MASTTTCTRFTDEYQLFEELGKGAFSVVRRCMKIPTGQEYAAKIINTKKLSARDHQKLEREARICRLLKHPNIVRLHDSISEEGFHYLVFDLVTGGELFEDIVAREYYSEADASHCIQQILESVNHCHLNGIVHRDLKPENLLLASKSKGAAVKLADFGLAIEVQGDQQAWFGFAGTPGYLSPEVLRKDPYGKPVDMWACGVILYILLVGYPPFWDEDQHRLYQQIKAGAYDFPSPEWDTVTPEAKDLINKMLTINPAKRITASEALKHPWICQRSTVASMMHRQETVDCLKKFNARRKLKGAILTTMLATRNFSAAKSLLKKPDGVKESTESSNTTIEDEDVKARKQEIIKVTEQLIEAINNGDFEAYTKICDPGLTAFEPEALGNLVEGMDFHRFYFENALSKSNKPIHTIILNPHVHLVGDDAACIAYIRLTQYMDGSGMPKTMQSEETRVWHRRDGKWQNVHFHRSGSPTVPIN

## C[C@@H](Cn1cnnn1)Oc1cc(-c2cnc(Nc3ncc(CO)n3C)nc2)ccc1Cl [Example 750, (S)-(2-((5-(3-((1-(1H-tetrazol-1-yl)propan-2-yl)oxy)-4-chlorophenyl)pyrimidin-2-yl)amino)-1-methyl-1H-imidazol-5-yl)methanol]
[1]
  IC50: ≥ 100 nM

## CC(Cn1cnnn1)Oc1cc(-c2cnc(Nc3cn(CC4(O)CCC(C)(O)CC4)nc3OCC(F)(F)F)nc2)ccc1Cl [Example 924, cis-1-((4-((5-(3-(((S)-1-(1H-tetrazol-1-yl)propan-2-yl)oxy)-4-chlorophenyl)pyrimidin-2-yl)amino)-3-(2,2,2-trifluoroethoxy)-1H-pyrazol-1-yl)methyl)-4-methylcyclohexane-1,4-diol]
[2]
  IC50: < 10 nM

## COC1CCC(N2CCC(n3cc(Nc4ncc(-c5ccc(Cl)c(OC(C)Cn6cnnn6)c5)cn4)c(C(F)(F)F)n3)CC2)CC1 (single isomer, unassigned; less polar) [Example 568, (S)-5-(3-((1-(1H-tetrazol-1-yl)propan-2-yl)oxy)-4-chlorophenyl)-N-(1-(1-(cis or trans-4-methoxycyclohexyl)piperidin-4-yl)-3-(trifluoromethyl)-1H-pyrazol-4-yl)pyrimidin-2-amine, less polar]
[3]
  IC50: < 10 nM

## C[C@@H](Cn1cnnn1)Oc1cc(-c2cnc(Nc3cn(-c4ccc(=O)[nH]c4)nc3OCC(F)(F)F)nc2)ccc1Cl [Example 902, (S)-5-(4-((5-(3-((1-(1H-tetrazol-1-yl)propan-2-yl)oxy)-4-chlorophenyl)pyrimidin-2-yl)amino)-3-(2,2,2-trifluoroethoxy)-1H-pyrazol-1-yl)pyridin-2(1H)-one]
[2]
  IC50: < 10 nM

## C[C@@H](Cn1cnnn1)Oc1cc(-c2cnc(Nc3cn(C4CC5(C4)CN(C(=O)OC(C)(C)C)C5)nc3OCC(F)(F)F)nc2)ccc1C(F)F [Example 948, tert-butyl (S)-6-(4-((5-(3-((1-(1H-tetrazol-1-yl)propan-2-yl)oxy)-4-(difluoromethyl)phenyl)pyrimidin-2-yl)amino)-3-(2,2,2-trifluoroethoxy)-1H-pyrazol-1-yl)-2-azaspiro[3.3]heptane-2-carboxylate]
[2]
  IC50: ≥ 100 nM

## C[C@@H](Cn1cnnn1)Oc1cc(-c2cnc(Nc3cn(C4CCN(C5CCOC5)CC4)nc3C(F)(F)F)nc2)ccc1Cl (stereo partly drawn) [Example 552, 5-(3-(((S)-1-(1H-tetrazol-1-yl)propan-2-yl)oxy)-4-chlorophenyl)-N-(1-(1-(tetrahydrofuran-3-yl)piperidin-4-yl)-3-(trifluoromethyl)-1H-pyrazol-4-yl)pyrimidin-2-amine]
[3]
  IC50: < 10 nM

## COc1cc2c(cc1Nc1ncc(-c3ccc(Cl)c(O[C@@H](C)Cn4cnnn4)c3)cn1)CN(C1COC1)CC2 [Example 463, (S)-N-(5-(3-((1-(1H-tetrazol-1-yl)propan-2-yl)oxy)-4-chlorophenyl)pyrimidin-2-yl)-6-methoxy-2-(oxetan-3-yl)-1,2,3,4-tetrahydroisoquinolin-7-amine]
[3]
  IC50: < 10 nM

## CO[C@H]1CC[C@H](N2CC3(CC(n4cc(Nc5ncc(-c6ccc(Cl)c(O[C@@H](C)Cn7cnnn7)c6)cn5)c(C(C)C)n4)C3)C2)CC1 [Example 980, 5-(3-(((S)-1-(1H-tetrazol-1-yl)propan-2-yl)oxy)-4-chlorophenyl)-N-(3-isopropyl-1-(2-((1r,4r)-4-methoxycyclohexyl)-2-azaspiro[3.3]heptan-6-yl)-1H-pyrazol-4-yl)pyrimidin-2-amine]
[2]
  IC50: < 10 nM

## CC(C)n1ccc(Nc2ncc(-c3ccc(Cl)c(O[C@@H](C)Cn4cnnn4)c3)cn2)n1 [Example 723, (S)-5-(3-((1-(1H-tetrazol-1-yl)propan-2-yl)oxy)-4-chlorophenyl)-N-(1-isopropyl-1H-pyrazol-3-yl)pyrimidin-2-amine]
[4]
  IC50: 10 to 100 nM

## C[C@@H](Cn1cnnn1)Oc1cc(-c2cnc(Nc3cn(CCCO)nc3C(F)(F)F)nc2)ccc1Cl [Example 718, (S)-3-(4-((5-(3-((1-(1H-tetrazol-1-yl)propan-2-yl)oxy)-4-chlorophenyl)pyrimidin-2-yl)amino)-3-(trifluoromethyl)-1H-pyrazol-1-yl)propan-1-ol]
[4]
  IC50: 10 to 100 nM

## C[C@@H](Cn1cnnn1)Oc1cc(-c2cnc(Nc3cc4c(cc3Cl)CCN(C3CCOCC3)CC4)nc2)ccc1C#N [Example 538, (S)-2-((1-(1H-tetrazol-1-yl)propan-2-yl)oxy)-4-(2-((8-chloro-3-(tetrahydro-2H-pyran-4-yl)-2,3,4,5-tetrahydro-1H-benzo[d]azepin-7-yl)amino)pyrimidin-5-yl)benzonitrile]
[3]
  IC50: < 10 nM

## C[C@@H](Cn1cnnn1)Oc1cc(-c2cnc(Nc3cc4c(cc3Cl)CCN(C3COC3)CC4)nc2)ccc1Cl [Example 513, (S)-N-(5-(3-((1-(1H-tetrazol-1-yl)propan-2-yl)oxy)-4-chlorophenyl)pyrimidin-2-yl)-8-chloro-3-(oxetan-3-yl)-2,3,4,5-tetrahydro-1H-benzo[d]azepin-7-amine]
[3]
  IC50: < 10 nM

## C[C@@H](Cn1cnnn1)Oc1cc(-c2cnc(Nc3cn(C4CC5(C4)CN(C4COC4)C5)nc3C(F)(F)F)nc2)ccc1Cl [Example 832, (S)-5-(3-((1-(1H-tetrazol-1-yl)propan-2-yl)oxy)-4-chlorophenyl)-N-(1-(2-(oxetan-3-yl)-2-azaspiro[3.3]heptan-6-yl)-3-(trifluoromethyl)-1H-pyrazol-4-yl)pyrimidin-2-amine]
[1]
  IC50: < 10 nM

## C[C@@H](Cn1cnnn1)Oc1cc(-c2cnc(Nc3cn(CC4(O)CCN(C(=O)OC(C)(C)C)CC4)nc3C(F)(F)F)nc2)ccc1Cl [Example 874, tert-butyl (S)-4-((4-((5-(3-((1-(1H-tetrazol-1-yl)propan-2-yl)oxy)-4-chlorophenyl)pyrimidin-2-yl)amino)-3-(trifluoromethyl)-1H-pyrazol-1-yl)methyl)-4-hydroxypiperidine-1-carboxylate]
[1]
  IC50: 10 to 100 nM

## C[C@@H](Cn1cnnn1)Oc1cc(-c2cnc(Nc3cn([C@H]4CC[C@H](N5CCOCC5)CC4)nc3C(F)(F)F)nc2)ccc1F [Example 808, 5-(3-(((S)-1-(1H-tetrazol-1-yl)propan-2-yl)oxy)-4-fluorophenyl)-N-(1-(trans-4-morpholinocyclohexyl)-3-(trifluoromethyl)-1H-pyrazol-4-yl)pyrimidin-2-amine]
[1]
  IC50: < 10 nM

## C[C@@H](Cn1cnnn1)Oc1cc(-c2cnc(Nc3cn([C@@H]4C[C@H]5CC[C@@H](C4)N5C4CC4)nc3C(F)(F)F)nc2)ccc1Cl [Example 757, 5-(3-(((S)-1-(1H-tetrazol-1-yl)propan-2-yl)oxy)-4-chlorophenyl)-N-(1-((1R,3s,5S)-8-cyclopropyl-8-azabicyclo[3.2.1]octan-3-yl)-3-(trifluoromethyl)-1H-pyrazol-4-yl)pyrimidin-2-amine]
[1]
  IC50: < 10 nM

## C[C@@H](Cn1cnnn1)Oc1cc(-c2cnc(Nc3cn(C4CCN(C5CCOCC5)CC4)nc3OCC(F)F)nc2)ccc1Cl [Example 792, (S)-5-(3-((1-(1H-tetrazol-1-yl)propan-2-yl)oxy)-4-chlorophenyl)-N-(3-(2,2-difluoroethoxy)-1-(1-(tetrahydro-2H-pyran-4-yl)piperidin-4-yl)-1H-pyrazol-4-yl)pyrimidin-2-amine]
[1]
  IC50: < 10 nM

## C[C@@H](Cn1cnnn1)Oc1cc(-c2cnc(Nc3cn(C4CC5(C4)CN(C4(C)CCOC4)C5)nc3OCC(F)(F)F)nc2)ccc1Cl (stereo partly drawn) [Example 954, 5-(3-(((S)-1-(1H-tetrazol-1-yl)propan-2-yl)oxy)-4-chlorophenyl)-N-(1-(2-(3-methyltetrahydrofuran-3-yl)-2-azaspiro[3.3]heptan-6-yl)-3-(2,2,2-trifluoroethoxy)-1H-pyrazol-4-yl)pyrimidin-2-amine]
[2]
  IC50: < 10 nM

Source: patent US10543212B2, “Substituted amines for treating cardiac diseases” (Cardurion Pharmaceuticals, LLC, priority 2017, dated 2020)
